Several values for one entry are separate records, joined by “and”; a condition that tells them apart may be missing. Equal values may be shown once.
How the values were obtained:
murine B16 melanoma = experiment: Antitumor effect in murine B16 melanoma model, tumor size and tumor weight (Example 2); type: in vivo, C57BL/6 mice; conditions: for Tumor volumes (cm^3) on Day 15: Length × Width × Width/2; for Tumor measurements L / Tumor measurements W / Tumor volumes: DTIC 50 mg/kg
Method: As per aseptic tissue culture procedures, one vial of B16 melanoma cells (supplied by Cell Culture Center of CAMS) was thawed and centrifuged at 1000 rpm, 20-25° C. for 5 minutes. The cell pellets were suspended in 0.1-0.5 mL normal saline (NS) and subcutaneously injected into the right axilla of each mouse (approximately 1×10^6 cells/mouse). When the tumor diameter was 1 cm approximately (measured by vernier caliper), the animals were euthanized with CO2 asphyxiation and the tumor was excised. Tumor cells were suspended in normal saline as previously described and the cell adaptation cycle was repeated once.
On Day 0, 1×10^6 B16 cells in a volume of 0.1 mL normal saline were subcutaneously injected into the right axillary area of the mouse. The day of tumor inoculation was defined as Day 0.
Dosing was initiated on Day 1.
Observations were recorded daily for mortality and moribundity. […] The tumors were excised, separated, and weighed.
Tumor volume was calculated using the following formula: Tumor Volume=Length×Width×Width/2 Tumor volume inhibition rate (IR) was calculated according to the formula: IR(TV)=(TVvehicle−TVdrug treated)/TVvehicle×100% TV is the tumor volume on the day of measurement.
The antitumor effect of the test article was also evaluated by tumor weight. The tumor weight of each mouse was recorded after euthanasia, and the inhibition rate of tumor weight was calculated according to the formula: IR(TW)=(Tumor weightvehicle−Tumor weightdrug treated)/Tumor weightvehicle×100%

B16 melanoma = B16 melanoma tumor growth, tumor weight and survival in C57/Bl6 mice, i.p. treatment (Example 1); type: in vivo; conditions: DTIC 50 mg/kg i.p.
Method: Tumors were induced by injecting 1×10^6 B16 melanoma cells subcutaneously in the hind leg of C57/Bl6 syngeneic mice. Mice were randomized into 5 groups of 10 animals and treated with SCV-07 at doses of 0.001, 0.01, or 0.10 mg/kg administered daily i.p. for 3 consecutive days for 2 weeks, starting 3 days after tumor implantation. Control groups were treated with saline or dacarbazine (DTIC) at a dose of 50 mg/kg i.p. for 3 days. Tumor growth was assessed every 3 days by a caliper and tumor weight was measured upon death.
Mice were injected with B16 melanoma cells and divided into 5 groups of 10 mice each. Control mice were given injections of saline or dacarbazine (DTIC). The effects of different doses of SCV-07 were examined with respect to tumor growth rate and survival time.

[1] = DTIC 50 mg/kg (Group 2), Day 15, individual animals F1-F5, M1-M5

CN(C)/N=N/c1[nH]cnc1C(N)=O [DTIC, Dacarbazine, reference compound]
Tumor volumes (cm^3) on Day 15 (murine B16 melanoma; DTIC 50 mg/kg (Group 2), Day 15, individual animals F1-F5, M1-M5, female animals): 0.36 cm^3 and 0.15 cm^3 and 0.11 cm^3 and 0.01 cm^3
Tumor volumes (cm^3) on Day 15 (murine B16 melanoma; DTIC 50 mg/kg (Group 2), Day 15, individual animals F1-F5, M1-M5, male animals): 0.03 cm^3 (2×) and 0.06 cm^3 and 0.17 cm^3 and 0.01 cm^3
Tumor measurements (cm) on Day 15, L (murine B16 melanoma; [1]): 0.3 cm (2×) and 0.4 cm (2×) and 0.7 cm and 0.9 cm and 0.5 cm and 1.2 cm and 0.6 cm
Tumor measurements (cm) on Day 15, W (murine B16 melanoma; [1]): 0.3 cm (2×) and 0.4 cm (2×) and 0.7 cm and 0.5 cm (2×) and 0.9 cm and 0.6 cm
Tumor weights (g) on Day 17 (murine B16 melanoma; DTIC 50 mg/kg (Group 2), Day 17, individual animals F1-F5, M1-M5, female animals): 0.70 g and 0.29 g and 0.98 g and 0.78 g and 0.5 g
Tumor weights (g) on Day 17 (murine B16 melanoma; DTIC 50 mg/kg (Group 2), Day 17, individual animals F1-F5, M1-M5, male animals): 0.46 g and 0.54 g and 0.37 g and 0.915 g and 0.18 g
Tumor Volume (Mean ± SD) (murine B16 melanoma; Day 3, DTIC 50 mg/kg/day, not measurable defined as 0): 0 cm^3
Tumor Volume (Mean ± SD) (murine B16 melanoma; Day 6, DTIC 50 mg/kg/day, not measurable defined as 0): 0 cm^3
IR (tumor volume inhibition rate) (murine B16 melanoma; Day 9, DTIC 50 mg/kg/day): 96.9%
Tumor Volume (Mean ± SD) (murine B16 melanoma; Day 9, DTIC 50 mg/kg/day): 0.001 ± 0.004 cm^3
Tumor measurements L (murine B16 melanoma; Day 9, mouse F2): 0.3 cm
Tumor measurements W (murine B16 melanoma; Day 9, mouse F2): 0.3 cm
Tumor volumes (murine B16 melanoma; Day 9, mouse F2): 0.01 cm^3
IR (tumor volume inhibition rate) (murine B16 melanoma; Day 12, DTIC 50 mg/kg/day): 98.8%
Tumor Volume (Mean ± SD) (murine B16 melanoma; Day 12, DTIC 50 mg/kg/day): 0.009 ± 0.020 cm^3
Tumor measurements L (murine B16 melanoma; Day 12, mouse F1): 0.3 cm
Tumor measurements W (murine B16 melanoma; Day 12, mouse F1): 0.3 cm
Tumor volumes (murine B16 melanoma; Day 12, mouse F1): 0.01 cm^3
Tumor measurements L (murine B16 melanoma; Day 12, mouse F3): 0.1 cm
Tumor measurements W (murine B16 melanoma; Day 12, mouse F3): 0.1 cm
Tumor volumes (murine B16 melanoma; Day 12, mouse F3): 5E−04 cm^3
Tumor measurements L (murine B16 melanoma; Day 12, mouse F4): 0.3 cm
Tumor measurements W (murine B16 melanoma; Day 12, mouse F4): 0.3 cm
Tumor volumes (murine B16 melanoma; Day 12, mouse F4): 0.01 cm^3
Tumor measurements L (murine B16 melanoma; Day 12, mouse F5): 0.1 cm
Tumor measurements W (murine B16 melanoma; Day 12, mouse F5): 0.1 cm
Tumor volumes (murine B16 melanoma; Day 12, mouse F5): 5E−04 cm^3
Tumor measurements L (murine B16 melanoma; Day 12, mouse M2): 0.5 cm
Tumor measurements W (murine B16 melanoma; Day 12, mouse M2): 0.5 cm
Tumor volumes (murine B16 melanoma; Day 12, mouse M2): 0.06 cm^3
IR (tumor volume inhibition rate) (murine B16 melanoma; Day 15, DTIC 50 mg/kg/day): 95.1%
Tumor Volume (Mean ± SD) (murine B16 melanoma; Day 15, DTIC 50 mg/kg/day): 0.095 ± 0.112 cm^3
IR (inhibition rate of tumor weight) (murine B16 melanoma; Day 17, DTIC 50 mg/kg/day): 85.0%
Tumor Weight (Mean ± SD) (murine B16 melanoma; Day 17, DTIC 50 mg/kg/day): 0.57 ± 0.27 g
MEAN TUMOR VOLUME (B16 melanoma; DAY 10 after tumor inoculation): 480 ± 13 mm^3
MEAN TUMOR VOLUME (B16 melanoma; DAY 17 after tumor inoculation): 545 ± 170 mm^3
DAY 24 % of control (inhibition in tumor growth) (B16 melanoma; DAY 24): 19%
MEAN TUMOR VOLUME (B16 melanoma; DAY 24 after tumor inoculation): 760 ± 220 mm^3
mean tumor weight lower (B16 melanoma): 15%
